# Measured values as given in US20210038585A1 (Tesaro, Inc., priority 2017, published 2021).
# Several values for one entry are separate records, joined by “and”; a condition that tells them apart may be missing. Equal values may be shown once. Read-outs that look alike come from different tables or passages of the source.
# Tests used:
# [1] = tested on: intracellular PARP activity
# in vivo = settings: 50 mg/kg
# [2] = tested on: intracellular PARP activity; settings: read-out: inhibited PARP activity in a whole cell assay, EC50; cited from earlier work
# [3] = tested on: cancer cells with mutant BRCA-1 and BRCA-2; settings: read-out: inhibited proliferation, CC50; cited from earlier work
# [4] = shear cell tests using a FT-4 powder rheometer; assay type: physicochemical; settings: niraparib drug substance; for BD (bulk density): shear cell test
# Method: As used herein, “flow function” or FF is a parameter commonly used to rank powder's flowability and is determined using a shear test. The data produced in the shear test represents the relationship between shear stress and normal stress, which can be plotted to define the powder's Yield Locus. Fitting Mohr stress circles to the yield locus identifies the Major Principle Stress (MPS) and Unconfined Yield Strength (UYS). Flow function is the ratio of Major Principle Stress (MPS) to the Unconfined Yield Strength (UYS):
# Shear testing can be used measure powder shear properties which involves the stress limit required to initiate a powder flow. The shear testing uses a segmented rotational shear cell head and a 10 ml powder sample in the borosilicate test vessel. Powder is filled into the vessel. The shear cell head is simultaneously rotated and moved axially under the powder sample at pre-determined normal stresses as the shear stresses are measured to calculate several parameters, including the flow function (FF). Usually, powders of low cohesion have higher FF and that represents better flow properties. The permeability test can measure the ease of air transmission through a bulk powder which can be related to the powder's flowability. For example, a permeability testing can use a vented piston with an aeration base and 10 mL powder sample in the borosilicated test vessel.
# Samples of powder compositions were prepared to evaluate the powder compositions disclosed herein. The following tests/measurements were made using a FT-4 powder rheometer from Freeman technology.
# The cohesion (kPa), Unconfined Yield Strength (UYS) (kPa), Maj or Principle Stress (MPS) (kPa), flow function (FF) (MPS/UYS), Angle of internal friction (AIF), and bulk density (BD) (g/cm^3) were determined by carrying out shear cell tests using a FT-4 powder rheometer and the results can be seen in the tables below: […]
# [5] = wall friction test, FT-4 powder rheometer, stainless steel discs; assay type: physicochemical; settings: niraparib batches, Ra 0.05; for BD (bulk density): wall friction test
# From the text: A Wall Friction test can be used to provide a measurement of the sliding resistance between a powder and the surface of process equipment, such as an encapsulator or blender or hopper. This can be important for understanding discharge behavior from hoppers, continuity of flow in transfer chutes and tablet ejection forces. It is also useful when investigating whether a powder will adhere to the wall of process equipment and various other surfaces, such as the inside of sachets, capsules and other packaging material. The measurement principle is very similar to the shear cell test, but rather than shearing powder against powder, in this test a coupon of material representing the process equipment wall is sheared against the powder in question. The FT4 Wall Friction accessory allows for a range of coupons to be investigated, and bespoke surfaces can be manufactured if required. Data is typically represented as a plot of shear stress against normal stress, allowing the determination of Wall Friction Angle (phi). The greater the wall friction angle, the higher the resistance between the powder and wall coupon.
# The measurement principle is very similar to the shear cell test, but rather than shearing powder against powder, in this test a coupon of material representing the process equipment wall is sheared against the powder in question. The FT4 Wall Friction accessory allows for a range of coupons to be investigated. Wall Friction is typically represented as a plot of shear stress against normal stress, allowing the determination of Wall Friction Angle (phi). The greater the wall friction angle, the higher the resistance between the powder and wall coupon.
# A wall friction test method was developed to assess the interaction between the drug substance and stainless steel. […]
# The head continues to move downwards until the required normal stress is established. […] The torque required to maintain this rotational is measured which enables a “steady-state” shear stress to be calculated. […] A series of shear stress values is measured for a range of target applied stresses. […]
# [6] = crystalline solid drug substance
# [7] = drug substance
# Method: These batches were divided into sub-lots at various time intervals and each sub-lot was analyzed for content uniformity.
Compound,AIF (Angle of internal friction) [4],Cohesion [4],"FF, flow function (MPS/UYS) [4]",MPS (Major Principle Stress) [4],UYS (Unconfined Yield Strength) [4],BD (bulk density) [4],BD (bulk density) [5],further results
"NC(=O)c1cccc2cn(-c3ccc([C@@H]4CCCNC4)cc3)nc12 [Niraparib, 2-{4-[(3S)-piperidin-3-yl]phenyl}-2H-indazole-7-carboxamide]",–,–,–,–,–,–,–,"intracellular PARP activity IC90 ([1]; mass concentration equivalent): 0.016 µg/mL; IC50 ([1]; read-out: intracellular PARP activity IC50): 4 nM; IC90 ([1]; read-out: intracellular PARP activity IC90): 50 nM; concentration at 6 h (in vivo): ~4570 ng/mL; EC50 [2]: 4 nM; CC50 [3]: 10 to 100 nM; tumor regression (tumor models; 50 mg/kg, daily dosing): tumor regression; tumor regression (tumor models; dosing switched from 75 mg/kg olaparib to 50 mg/kg niraparib): tumor regression was achieved"
O=C(c1cc(Cc2n[nH]c(=O)c3ccccc23)ccc1F)N1CCN(C(=O)C2CC2)CC1 [olaparib],–,–,–,–,–,–,–,"tumor regression (tumor models; same model, dose of 75 mg/kg): did not result in tumor regression"
"Cc1ccc(S(=O)(=O)O)cc1.NC(=O)c1cccc2cn(-c3ccc(C4CCCNC4)cc3)nc12.O (stereo not drawn) [Non Milled, Annealed A]",36.54 ° and 35.80 °,1.10 kPa and 1.02 kPa,4.27 and 4.66,18.64 kPa and 18.50 kPa,4.36 kPa and 3.97 kPa,0.38 g/mL and 0.37 g/mL,0.37 g/mL and 0.38 g/mL and 0.39 g/mL,–
"Cc1ccc(S(=O)(=O)O)cc1.NC(=O)c1cccc2cn(-c3ccc([C@@H]4CCCNC4)cc3)nc12 [Niraparib tosylate monohydrate, 2-{4-[(3S)-piperidin-3-yl]phenyl}-2H-indazole 7-carboxamide 4-methylbenzenesulfonate hydrate (1:1:1)]",–,–,–,–,–,–,–,hygroscopicity [6]: non-hygroscopic; bulk density [7]: 0.34-0.45 g/cc; tapped density [7]: 0.53-0.66 g/cc
"Cc1ccc(S(=O)(=O)O)cc1.NC(=O)c1cccc2cn(-c3ccc(C4CCCNC4)cc3)nc12.O (stereo not drawn) [Non Milled, Annealed D]",30.49 ° and 31.30 °,1.14 kPa and 1.06 kPa,4.12 and 4.32,16.44 kPa and 16.24 kPa,3.99 kPa and 3.76 kPa,0.44 g/mL and 0.46 g/mL,0.44 g/mL and 0.46 g/mL and 0.45 g/mL,WFA (Wall friction angle) [5]: 27.29 ° and 31.10 ° and 30.98 °
